# Data taken from patent US20220331348A1, “METHOD OF PREPARING PENTACYCLIC TRITERPENOID SAPONINS AND DRUG COMPOSITION” (CHINA PHARMACEUTICAL UNIVERSITY, priority 2019, published 2022).
# How the values were obtained:
# AMPK in Huh-7 cells = assay: Activation activity on AMPK in Huh-7 cells (Western Blot); type: cell-based; conditions: 10 μM, 12 h, Western Blot gray scale, relative to DMSO = 1
# Protocol: The activation activity of a compound on AMPK in Huh-7 cells was detected by using Western Blot.
# Cell culture conditions: Huh-7 cells were cultured in an incubator with 5% CO2 at 37° C. in DMEM complete medium (containing 10% fetal calf serum and 1% streptomycin/penicillin).
# Antibody: anti-AMPK (CST, 2532S); anti-pAMPK (CST, 2535S).
# Western Blot experiment: the influence of the compound on phosphorylation level of the AMPK in the Huh-7 cells was detected: cells with more than 90% cells alive were taken for the experiment. In a 12-well plate, the Huh-7 cells were plated in the plate at 250000 cells per well, the plate was placed in the incubator with 5% CO2 at 37° C. for culture, an original culture medium was discarded after 12 h, a complete medium containing the pentacyclic triterpenoid saponin was added, a final concentration of subject pentacyclic triterpenoid saponin was set to be 10 μM, and an administration time was set to be 12 h. A positive control compound employs AICAR (100 μM), metformin (70 μM) or A-769662 (100 μM). Then proteins were extracted for Western Blot detection.
# Experimental result: a Western Blot experimental result was subjected to gray scale scanning, a p-AMPK/AMPK ratio of negative control DMSO was defined as 1, and a p-AMPK/AMPK ratio of the subject compound was a relative ratio of a negative control group. The larger the numerical value was, the stronger the activation activity of the AMPK of the compound was.
# [1] = system: ulcerative colitis model mice induced by DSS; assay: Dextran sulphate sodium salt (DSS) induced ulcerative colitis model mice; type: in vivo, mouse; conditions: DSS-induced mice; dose not given; vs model group
# Protocol: C57BL/6 male mice with 6-8 weeks old were selected; a control group was fed with purified water; and a model group, a treatment group and a positive control group were fed with purified water containing 2% dextran sulphate sodium salt (DSS) (36000-50000 M.Wt) for 7 days and then with the purified water for 3 days, and drug intervention was conducted at the same time. The mice in the control group and the model group were orally administered with carboxymethyl cellulose sodium as a placebo, the mice in the treatment group were orally administered with the ziyuglycoside II (purchased from Shanghai Boka Chemistry Technology Co., Ltd) (with a dosage of 5 mg/kg), and the mice in the positive control group were orally administered with 5-aminosalicylic acid as a clinical drug (5-ASA, purchased from Shanghai Sangon Biological Engineering Co., Ltd) (with a dosage of 100 mg/kg). In the administration process, weight changes, feces characters and hematochezia conditions of the mice were observed and recorded every day and were scored, and disease activity indexes were calculated (Disease activity index, DAI).
# A scoring rule and a calculation method were as follows: DAT=(weight score+diarrhea score+occult blood score)/3, wherein weight score: 0 (weight gained or unchanged), 1 (weight lost by 1-5%), 2 (weight lost by 6-10%), 3 (weight lost by 11-15%), 4 (weight lost by 15% or above); diarrhea score: 0 (normal feces), 2 (soft feces), 4 (feces sticking anuses or diarrhea); and occult blood score: 0 (negative occult blood), 2 (positive occult blood), and 4 (visible bleeding). Comparing differences in DAI of various groups, it can be known that the ziyuglycoside II has significant prevention and treatment effects on ulcerative colitis of the mice modeled by the dextran sulphate sodium salt (DSS).
# The above mice were sacrificed by cervical dislocation at day 11, colon tissues were harvested, lengths of the colon tissues were measured for statistical summary, and differences in colon length of various groups were compared, from which, the ziyuglycoside II has significant prevention and treatment effect on the ulcerative colitis model mice.
# Middle segments, with lengths of about 1 cm, of the colon tissues of the above mice were selected, soaked in a formalin solution for fixing overnight, embedded with paraffin and sliced, and the slices were subjected to HE staining. […] Particularly, compared with the positive drug group, the ziyuglycoside II has the advantage of maintaining a thickness of a muscular layer.
# 10 mg of proximal rectum segments of the colon tissues of the above mice were selected, PBS was added for homogenization, and centrifugation was conducted for taking a supernate. The supernate was subjected to ELISA detection, and protein quantification was conducted for inflammatory factors TNF-α and IL-lb.
# 10 mg of colon tissues of the above mice were selected for detection of ROS therein.
# When the ulcerative colitis occurs, the inflammatory factors may destruct tight junction between intestinal tracts, and destruction of the tight junction enables functions of mucosal barriers to be lost and accelerates development of the diseases. 5 mg of colon tissues of the above mice were selected for qPCR analysis. […] This hints that the ziyuglycoside II further has the efficacy of increasing the expression level of the tight junction and then protecting a structure of each colon. […] Therefore, the ziyuglycoside II is expected to be useful for preparing the drug for preventing or treating the inflammatory bowel diseases such as the ulcerative colitis.
# [2] = system: TNBS modeled Crohn's disease model mice; assay: 2,4,6-trinitrobenzene sulfonic acid (TNBS) modeled Crohn's disease model mice; type: in vivo, mouse; conditions: dose not given; for expression level of inflammatory factor IL-1β / expression level of inflammatory factor TNF-α: vs model group
# Protocol: C57BL/6 male mice with 6-8 weeks old were selected and randomly divided into a control group, a mode group, a treatment group and a positive control group. Expect for the control group, after the mice in the rest groups anesthetized with isoflurane, hoses were carefully inserted into colons of the mice from anuses, and […] of 1.5% 2,4,6-trinitrobenzene sulfonic acid (TNBS) was slowly injected. Before the hoses were pulled out, the mice were placed upside down for 1 min. First intragastric administration was conducted at the day of enema treatment, the mice in the control group and the model group were orally administered with carboxymethyl cellulose sodium as a placebo, the mice in the treatment group were orally administered with the ziyuglycoside II (purchased from Shanghai Boka Chemistry Technology Co., Ltd) (with a dosage of 5 mg/kg), and the mice in the positive drug group were orally administered with 5-aminosalicylic acid as a clinical drug (5-ASA, purchased from Shanghai Sangon Biological Engineering Co., Ltd) (with a dosage of 100 mg/kg). Administration was continuously conducted for 7 days. In the administration process, the states of the mice were observed every day, and weight changes of the mice were recorded.
# Differences in weight change of the mice in various groups were compared, from which, ziyuglycoside II has the treatment effect on the 2, 4, 6-trinitrobenzene sulfonic acid (TNBS) modeled Crohn's disease model mice.
# The above mice were sacrificed by cervical dislocation at day 8, colon tissues were harvested, lengths of the colon tissues were measured for statistical summary, and differences in colon length of various groups were compared, from which, the ziyuglycoside II has significant treatment effect on the Crohn's disease model mice. […] 10 mg of proximal rectum segments of the colon tissues of the above mice were selected, PBS was added for homogenization, and centrifugation was conducted for taking a supernate. The supernate was subjected to ELISA detection, and protein quantification was conducted for inflammatory factors TNF- and IL-1. […] Myeloperoxidase (MPO) is an enzyme specific to neutrophils, and the amount of the neutrophils in the intestinal tracts may be reflected by detecting the MPO level. 5 mg of proximal rectum segments of the colon tissues of the above mice were selected, PBS was added for homogenization, and the content of the MPO in a homogenate was detected with a MPO kit (purchased from Nanjing Jiancheng Bioengineering Institute). […] Therefore, the ziyuglycoside II is expected to be useful for preparing the drug for preventing or treating the inflammatory bowel diseases such as the Crohn's disease.
Compound,pAMPK/AMPK ratio (AMPK in Huh-7 cells),DAI scores of the treatment group [1],colon length of the treatment group compared with the control group [2],expression level of inflammatory factor IL-1β [2],expression level of inflammatory factor TNF-α [2]
"CC1(C)CC[C@]2(C(=O)O[C@@H]3O[C@H](CO)[C@@H](O)[C@H](O)[C@H]3O)CC[C@]3(C)C(=CC[C@@H]4[C@@]5(C)CC[C@H](O[C@@H]6O[C@H](C(=O)O)[C@@H](O)[C@H](O)[C@H]6O[C@@H]6O[C@H](CO)[C@@H](O)[C@H](O)[C@H]6O)C(C)(C)[C@@H]5CC[C@]43C)[C@@H]2C1 [(I), ginsenoside Ro]",2.39,obviously lower than those of the model group,nearly no difference,significantly lower than those of the model group,significantly lower than those of the model group
"CC1(C)CC[C@]2(C(=O)O[C@@H]3O[C@H](CO[C@@H]4O[C@H](CO)[C@@H](O)[C@H](O)[C@H]4O)[C@@H](O)[C@H](O)[C@H]3O)CC[C@]3(C)C(=CC[C@@H]4[C@@]5(C)CC[C@H](O[C@@H]6OC[C@H](O)[C@H](O)[C@H]6O)[C@@](C)(CO)[C@@H]5CC[C@]43C)[C@@H]2C1 [(II), asperosaponin VI]",2.90,obviously lower than those of the model group,nearly no difference,significantly lower than those of the model group,significantly lower than those of the model group
"C[C@H]1O[C@@H](O[C@H]2CC[C@@]3(C)[C@@H](CC[C@]4(C)[C@@H]3C=C[C@]35OC[C@@]6(CCC(C)(C)C[C@H]63)[C@@H](O)C[C@]54C)[C@]2(C)CO)[C@H](O)[C@@H](O[C@@H]2O[C@H](CO)[C@@H](O)[C@H](O)[C@H]2O)[C@H]1O [(VII), saikosaponin A]",1.76,obviously lower than those of the model group,nearly no difference,significantly lower than those of the model group,significantly lower than those of the model group
"C[C@H]1O[C@@H](O[C@H]2CC[C@@]3(C)[C@@H](CC[C@]4(C)[C@@H]3C=C[C@]35OC[C@@]6(CCC(C)(C)C[C@H]63)[C@H](O)C[C@]54C)[C@]2(C)CO)[C@H](O)[C@@H](O[C@@H]2O[C@H](CO)[C@@H](O)[C@H](O)[C@H]2O)[C@H]1O [(VIII), saikosaponin D]",2.0,obviously lower than those of the model group,nearly no difference,significantly lower than those of the model group,significantly lower than those of the model group
"C[C@@H]1O[C@@H](O[C@H]2[C@H](O[C@H]3CC[C@@]4(C)[C@@H](CC[C@]5(C)[C@@H]4CC=C4[C@@H]6CC(C)(C)CC[C@]6(C(=O)O)CC[C@]45C)[C@]3(C)CO)OC[C@H](O)[C@@H]2O)[C@H](O)[C@H](O)[C@H]1O [(X), α-hederin]",3.33,obviously lower than those of the model group,nearly no difference,significantly lower than those of the model group,significantly lower than those of the model group
"C[C@@H]1O[C@@H](O[C@H]2[C@H](O[C@H]3CC[C@@]4(C)[C@@H](CC[C@]5(C)[C@@H]4CC=C4[C@@H]6CC(C)(C)CC[C@]6(C(=O)O[C@@H]6O[C@H](CO[C@@H]7O[C@H](CO)[C@@H](O[C@@H]8O[C@@H](C)[C@H](O)[C@@H](O)[C@H]8O)[C@H](O)[C@H]7O)[C@@H](O)[C@H](O)[C@H]6O)CC[C@]45C)[C@]3(C)CO)OC[C@H](O)[C@@H]2O)[C@H](O)[C@H](O)[C@H]1O [(XI), hederacoside C]",1.95,obviously lower than those of the model group,nearly no difference,significantly lower than those of the model group,significantly lower than those of the model group
"C[C@@H]1CC[C@]2(C(=O)O[C@@H]3O[C@H](CO)[C@@H](O)[C@H](O)[C@H]3O)CC[C@]3(C)C(=CC[C@@H]4[C@@]5(C)CC[C@H](O[C@@H]6OC[C@H](O)[C@H](O)[C@H]6O)C(C)(C)[C@@H]5CC[C@]43C)[C@@H]2[C@]1(C)O [(XII), ziyuglycoside I]",2.45,obviously lower than those of the model group,nearly no difference,significantly lower than those of the model group,significantly lower than those of the model group
